Where two headings read alike, the source gives them in different places.
What was measured:
PHL [1] = biological target: T1, PHL (Photorhabdus asymbiotica, UniProt C7BLE4); assay type: binding; settings: for Median: calculated from hexaplicates; for relative binding / preference on glycan array: PHL 200 μg/ml
PHL [2] = biological target: T1, PHL; test: SPR inhibition of PHL binding to immobilized L-fucoside; settings: for Potency relative to L-Fuc: SPR inhibition, from IC50; for IC50: SPR, PHL 0.25 μM binding to immobilized L-fucoside, 25°C, read-out: IC50
Method: SPR inhibition experiments were performed using the same conditions described above. The PHL lectin (0.25 μM final concentration) was mixed with various concentrations of inhibitors (1M – 0.01 mM) and injected onto the sensor chip. Pure PHL lectin was used as a control (0% inhibition). The response of the lectin bound to the sugar surface at equilibrium was plotted against the concentration of inhibitor in order to determine IC50.

PHL [3] = biological target: T1, PHL; test: Isothermal titration calorimetry (ITC); assay type: binding
Method: ITC experiments were performed using an ITC200 calorimeter (Malvern, England). Experiments were performed at 25°C in buffer A (300 mM NaCl, 20 mM Tris/HCl, pH 7.5). Carbohydrate ligands were dissolved in the same buffer. Protein in the cell (50 μM) was titrated by consecutive addition (2 μl) of the ligand in the syringe (1.5–50 mM) while stirring at 1000 rpm. Control experiments performed with injections of buffer in the protein solution yielded insignificant signals. Integrated heat effects were analyzed by nonlinear regression using a single-site binding model in Origin 7 (Microcal). The experimental data fitted to a theoretical titration curve brought up stoichiometry (n), association constant Ka, and the enthalpy of binding ΔH. The other thermodynamic parameters such as free energy (ΔG) and […] (ΔS) were calculated from the equation ΔG = ΔH-TΔS = -RTlnKa, where T is the absolute temperature and R is the molar gas constant (8.314 J.mol^-1.K^-1). At least two independent titrations were carried out for each tested ligand.

PHL [4] = biological target: T1, PHL; test: Haemagglutination inhibition assay with PHL; assay type: cell-based; settings: for Potency towards L-fucose: haemagglutination inhibition, from MIC; for MIC (minimal inhibitory concentration) of haemagglutination by PHL: microscopy
Method: A haemagglutination inhibition assay was performed to determine the specificity and semi-quantitative affinity of PHL interaction with the saccharides. A wide range of monosaccharides at concentrations from 50 mM to 0.5 mM were used for determining the lowest inhibiting concentration. A 20 μl mixture composed of 5 μl PHL (2mg/ml), 5 μl saccharide, and 10 μl 10% RBCs was prepared (all components of reaction were in PBS buffer). After 10 minutes, the reaction was observed using a Levenhuk microscope.

[5] = glycan array signal of PHL per printed glycan, microarray chip (Semiotic, Moscow; Slide number 10085636), 488 channel
[6] = glycan array signal of labelled PHL for the printed glycan/polysaccharide, Semiotic slide 10085636
[7] = ITC at 25°C, stoichiometry fixed to 3, read-out: KD (n = 3)
[8] = ITC at 25°C, stoichiometry fixed to 4, read-out: KD (n = 4)

T1 sequence (C7BLE4 1-369): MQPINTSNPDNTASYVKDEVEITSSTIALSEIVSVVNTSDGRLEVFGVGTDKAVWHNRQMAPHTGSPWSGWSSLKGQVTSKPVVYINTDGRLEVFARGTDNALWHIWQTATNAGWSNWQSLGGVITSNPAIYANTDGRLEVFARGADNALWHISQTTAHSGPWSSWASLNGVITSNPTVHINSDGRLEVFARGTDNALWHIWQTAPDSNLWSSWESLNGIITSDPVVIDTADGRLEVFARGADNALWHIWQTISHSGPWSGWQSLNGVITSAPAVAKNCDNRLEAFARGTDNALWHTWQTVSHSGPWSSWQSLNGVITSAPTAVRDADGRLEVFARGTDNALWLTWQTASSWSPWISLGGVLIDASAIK

Compound | Potency relative to L-Fuc (PHL [2]) | Kd (PHL [3]; [7]) [µM] | Kd (PHL [3]; [8]) [µM] | Potency towards L-fucose (PHL [4]) | other results
4,6-O-Su2-GalNAcβ1-4-(3-O-Ac)GlcNAcβ-sp3 | – | – | – | – | Median (PHL [1]; [5]): 81
4,6-O-Su2-Galβ1-4GlcNAcβ-sp2 | – | – | – | – | Median (PHL [1]; [6]): 77
4-O-Su-Galβ1-4GlcNAcβ-sp3 | – | – | – | – | Median (PHL [1]; [6]): 77
6-H2PO3Manα-sp3 | – | – | – | – | Median (PHL [1]; [5]): 83
6-O-Su-Galβ1-3(6-O-Su)GlcNAcβ-sp2 | – | – | – | – | Median (PHL [1]; [5]): 87
6-O-Su-Galβ1-3GalNAcα-sp3 | – | – | – | – | Median (PHL [1]; [5]): 81
6-O-Su-Galβ1-3GlcNAcβ-sp3 | – | – | – | – | Median (PHL [1]; [6]): 73
CC(=O)N[C@H]1[C@H](OCCCN)O[C@H](CO)[C@@H](O[C@@H]2O[C@H](CO)[C@H](OS(=O)(=O)O)[C@H](OS(=O)(=O)O)[C@H]2O)[C@@H]1O [3,4-O-Su2-Galβ1-4GlcNAcβ-sp3] | – | – | – | – | Median (PHL [1]; [5]): 87
COC[C@H]1O[C@@H](O[C@@H]2[C@@H](OC)[C@@H](OC)[C@H](Oc3ccc(OCCN)cc3)O[C@H]2C)[C@H](O)[C@@H](OC)[C@@H]1O [3,6-O-Me2-Glcβ1-4(2,3-O-Me2)Rhaα-O-(p-C6H4)-OCH2CH2NH2] | – | – | – | – | relative binding / preference on glycan array (PHL [1]): most preferred complex saccharide
CC(=O)N[C@H]1[C@@H](O[C@H]2[C@@H](O)[C@@H](CO)O[C@@H](O)[C@@H]2O[C@@H]2O[C@@H](C)[C@@H](O)[C@@H](O)[C@@H]2O)O[C@H](CO)[C@H](O)[C@@H]1O [BGA trisaccharide] | 1.21 | 1450 ± 30 | 1380 ± 40 | 1.3 | IC50 (PHL [2]): 300 µM; MIC (minimal inhibitory concentration) of haemagglutination by PHL (PHL [4]): 2500 µM
C[C@@H]1O[C@@H](O[C@H]2C(O)O[C@H](CO)[C@H](O)[C@@H]2O[C@H]2O[C@H](CO)[C@H](O)[C@H](O)[C@H]2O)[C@@H](O)[C@H](O)[C@@H]1O (some centres unmarked) [BGB trisaccharide] | 5.15 | 570 ± 10 | 510 ± 10 | 10 | Potency relative to L-Fuc (PHL [2]; listed as blood group B trisaccharide): ~5; IC50 (PHL [2]): 70 µM; relative binding / preference on glycan array (PHL [1]): strongest binding to human-related oligosaccharides; binding stoichiometry (PHL [3]; ITC, fitted): ~4.3; Kd (PHL [3]; ITC, stoichiometry not fixed, read-out: equilibrium dissociation constant): 490 µM
CC(=O)N[C@H]1C(O)O[C@H](CO)[C@@H](O[C@@H]2O[C@H](CO)[C@H](O)[C@H](O)[C@H]2O[C@@H]2O[C@@H](C)[C@@H](O)[C@@H](O)[C@@H]2O)[C@@H]1O (some centres unmarked) [BGH trisaccharide] | 0.33 | 4440 ± 190 | 4350 ± 190 | <0.01 | IC50 (PHL [2]): 1090 µM
O=C[C@H](O)[C@@H](O)[C@@H](O)[C@H](O)CO [D-Gal, D-galactose] | < 0.01 | – | – | <0.01 | Kd (PHL [3]; KD (n = 3), ITC at 25°C, stoichiometry fixed to 3): 890 ± 20 µM; Kd (PHL [3]; KD (n = 4), ITC at 25°C, stoichiometry fixed to 4): 830 ± 20 µM
CC(=O)N[C@@H]1[C@@H](O)[C@H](O)[C@@H](CO)O[C@@H]1O [D-GlcNAc, N-acetyl-D-glucosamine] | 0.01 | – | – | <0.01 | IC50 (PHL [2]): 70500 µM
OC[C@H]1OC(O)[C@H](O)[C@@H](O)[C@@H]1O (stereo partly drawn) [D-Glc] | < 0.01 | 3550 ± 150 | 3480 ± 150 | <0.01 | –
OC[C@H]1OC(O)[C@@H](O)[C@@H](O)[C@@H]1O (stereo partly drawn) [D-Man, D-mannose] | < 0.01 | 44600 ± 2000 | 44400 ± 2000 | <0.01 | –
CC(=O)N[C@H]1C(O)O[C@H](CO)[C@@H](O)[C@@H]1O[C@@H]1O[C@@H](C)[C@@H](O)[C@@H](O)[C@@H]1O (some centres unmarked) [Fucα1-3GlcNAc] | 0.53 | 3520 ± 210 | 3430 ± 210 | 1.3 | IC50 (PHL [2]): 690 µM; MIC (minimal inhibitory concentration) of haemagglutination by PHL (PHL [4]): 2500 µM
